Data published in ChEMBL document CHEMBL1201862, “PubChem BioAssay data set” (2004).
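Tested at 5 concentrations; 48 h exposure; 96-well plates; endpoints linearly interpolated, else capped at highest concentration. GI50: concentration for 50% inhibition of growth.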 Active and inactive are the calls of the source. Cut-off read from the data, not from the text of the source: active = GI50 up to about 1.1 µM and inactive = higher.

What was measured:
Assay in all cases: growth of human tumour cells (NCI), 48 h
ACHN = system: ACHN
DU-145 = system: DU-145
EKVX = system: EKVX
HCT-116 = system: HCT-116
HOP-62 = system: HOP-62
HT-29 = system: HT-29
Hs-578T = system: Hs-578T
MCF7 = system: MCF7
MOLT-4 = system: MOLT-4
NCI-H460 = system: NCI-H460
OVCAR-8 = system: OVCAR-8
PC-3 = system: PC-3
SF-295 = system: SF-295
SK-MEL-2 = system: SK-MEL-2
U-251 = system: U-251
HL-60 = system: HL-60
SF-539 = system: SF-539
SN12C = system: SN12C
NCI-H226 = system: NCI-H226

Measured: GI50

COC(=O)C1CCC(=S)N1C(=O)c1ccccc1 (stereo not drawn)
inactive: ACHN > 100 µM | DU-145 > 100 µM | EKVX 87.3 µM | HCT-116 > 100 µM | HOP-62 > 100 µM | HT-29 > 100 µM | Hs-578T > 100 µM | MCF7 > 100 µM | MOLT-4 26.5 µM | NCI-H460 40.6 µM | OVCAR-8 > 100 µM | PC-3 > 100 µM | SF-295 > 100 µM | SK-MEL-2 > 100 µM | U-251 > 100 µM

CCOC(=O)CCCO
inactive: ACHN > 100 µM | EKVX > 100 µM | HCT-116 > 10 µM | HL-60 > 100 µM | HT-29 > 100 µM | MOLT-4 > 100 µM | NCI-H460 > 100 µM | OVCAR-8 > 100 µM | SF-295 > 100 µM | SF-539 > 100 µM | SK-MEL-2 > 100 µM | SN12C > 100 µM | U-251 > 100 µM

Cc1ccc(-c2nc(-c3cnccn3)n(C3OC(CO)C(O)C(O)C3O)n2)cc1 (stereo not drawn)
inactive: DU-145 > 100 µM | EKVX > 100 µM | HCT-116 > 100 µM | HL-60 > 100 µM | HOP-62 > 100 µM | HT-29 > 100 µM | MCF7 > 100 µM | MOLT-4 > 100 µM | NCI-H460 > 100 µM | OVCAR-8 > 100 µM | PC-3 > 100 µM | SF-295 > 100 µM | SF-539 > 100 µM | SN12C > 100 µM | U-251 > 100 µM

Cc1ccccc1/N=N/c1cc(C)c(/N=N/c2c(O)ccc3ccccc23)cc1C
inactive: ACHN > 100 µM | DU-145 > 100 µM | EKVX > 100 µM | HCT-116 > 100 µM | HOP-62 > 100 µM | HT-29 > 100 µM | Hs-578T 55.8 µM | MOLT-4 > 100 µM | NCI-H226 > 100 µM | OVCAR-8 > 100 µM | PC-3 > 100 µM | SF-295 > 100 µM | SK-MEL-2 > 100 µM | SN12C > 100 µM | U-251 99.3 µM

C1CCCN(NC2=NCCO2)CC1
inactive: ACHN > 100 µM | EKVX > 100 µM | HCT-116 > 100 µM | HL-60 > 100 µM | HOP-62 > 100 µM | HT-29 > 100 µM | Hs-578T > 100 µM | MCF7 > 100 µM | MOLT-4 > 100 µM | NCI-H226 > 100 µM | NCI-H460 > 100 µM | OVCAR-8 > 100 µM | PC-3 > 100 µM | SF-295 > 100 µM | SF-539 > 100 µM | SK-MEL-2 > 100 µM | SN12C > 100 µM | U-251 > 100 µM

Cc1ccccc1NC(=O)Cc1csc2[n+]1C(=O)/C(=C/c1ccc([N+](=O)[O-])cc1)S2
inactive: ACHN 24.2 µM | DU-145 53.8 µM | EKVX 22.7 µM | HCT-116 37.6 µM | HL-60 27.7 µM | HOP-62 33.5 µM | HT-29 36 µM | MCF7 42.9 µM | MOLT-4 25.5 µM | NCI-H226 31.2 µM | NCI-H460 22.1 µM | OVCAR-8 24.8 µM | PC-3 26.8 µM | SF-295 31.8 µM | SF-539 29 µM | SK-MEL-2 29.4 µM | SN12C 43.4 µM | U-251 29.7 µM

O=Cc1c(C(=O)O)[nH]c(=O)[nH]c1=O
inactive: ACHN > 100 µM | DU-145 > 100 µM | EKVX > 100 µM | HCT-116 > 100 µM | HL-60 > 100 µM | HT-29 > 100 µM | Hs-578T > 100 µM | MOLT-4 > 100 µM | NCI-H226 > 100 µM | NCI-H460 > 100 µM | OVCAR-8 > 100 µM | PC-3 > 100 µM | SF-295 > 100 µM | SF-539 > 100 µM | SK-MEL-2 > 100 µM | SN12C > 100 µM | U-251 > 100 µM

Cc1cc(NS(=O)(=O)c2ccc(/N=N/c3c(Nc4ccccc4)nn(-c4ccc(S(=O)(=O)Nc5ccncn5)cc4)c3C)cc2)no1
inactive: ACHN > 100 µM | DU-145 > 100 µM | EKVX > 100 µM | HCT-116 > 100 µM | HOP-62 > 100 µM | HT-29 > 100 µM | MCF7 > 100 µM | MOLT-4 > 100 µM | NCI-H226 > 100 µM | OVCAR-8 > 100 µM | PC-3 > 100 µM | SF-295 > 100 µM | SF-539 > 100 µM | SK-MEL-2 > 100 µM | SN12C > 100 µM | U-251 > 100 µM

CC(C)=Cc1cc(CCC/C(C)=C/Cc2c(O)cc(C)c(C(=O)O)c2O)co1
inactive: ACHN > 100 µM | DU-145 > 100 µM | EKVX > 100 µM | HCT-116 > 100 µM | HOP-62 > 100 µM | HT-29 > 100 µM | Hs-578T 26.2 µM | MCF7 > 100 µM | NCI-H460 > 100 µM | OVCAR-8 84.9 µM | PC-3 > 100 µM | SF-295 > 100 µM | SF-539 > 100 µM | SK-MEL-2 > 100 µM | SN12C > 100 µM | U-251 > 100 µM

CSCSSC
inactive: ACHN > 100 µM | DU-145 > 100 µM | EKVX > 100 µM | HCT-116 > 100 µM | HL-60 2.54 µM | HOP-62 > 100 µM | HT-29 > 100 µM | Hs-578T > 100 µM | MOLT-4 4.67 µM | NCI-H226 > 100 µM | NCI-H460 > 100 µM | OVCAR-8 > 100 µM | PC-3 > 80 µM | SF-295 > 100 µM | SF-539 > 100 µM | SK-MEL-2 > 35.5 µM | SN12C > 100 µM

C#CCN(CC#C)C(=O)C(=O)c1c[nH]c2ccc(OC)cc12
inactive: ACHN 21.3 µM | DU-145 39.1 µM | EKVX 32.4 µM | HCT-116 17.5 µM | HL-60 3.99 µM | HOP-62 16.7 µM | HT-29 12.5 µM | Hs-578T 16.1 µM | MCF7 18.6 µM | MOLT-4 > 10 µM | NCI-H226 18.2 µM | NCI-H460 15 µM | OVCAR-8 22 µM | SF-295 17.5 µM | SF-539 14 µM | SN12C 15.3 µM | U-251 14.4 µM

CC1(C)CC2(C)CC1CC2(O)c1ccccc1 (stereo not drawn)
inactive: ACHN > 100 µM | DU-145 > 100 µM | HCT-116 > 100 µM | HL-60 > 100 µM | HOP-62 > 100 µM | HT-29 > 100 µM | Hs-578T > 100 µM | MOLT-4 > 100 µM | NCI-H226 > 100 µM | NCI-H460 > 100 µM | OVCAR-8 > 100 µM | PC-3 > 100 µM | SF-295 > 100 µM | SF-539 > 100 µM | SN12C > 100 µM | U-251 > 100 µM

O=[PH]1c2ccccc2Nc2ccccc21
inactive: ACHN > 100 µM | DU-145 98.6 µM | EKVX 22.4 µM | HCT-116 > 100 µM | HL-60 75.7 µM | HOP-62 > 100 µM | HT-29 51.6 µM | MCF7 > 100 µM | MOLT-4 26.2 µM | NCI-H226 > 100 µM | NCI-H460 53.5 µM | OVCAR-8 > 100 µM | PC-3 47.1 µM | SF-295 > 100 µM | SF-539 > 100 µM | SK-MEL-2 49.9 µM | SN12C > 100 µM | U-251 > 100 µM

C=CCN1C2Cc3cc(OC)c(OC)cc3C1Cc1cc(OC)c(OC)cc12
inactive: ACHN > 100 µM | EKVX > 100 µM | HOP-62 > 100 µM | HT-29 69 µM | MOLT-4 > 100 µM | NCI-H460 > 100 µM | OVCAR-8 > 100 µM | SF-295 53.8 µM | SK-MEL-2 > 100 µM | SN12C > 100 µM | U-251 > 100 µM

COc1ccc(/C(Cl)=C(\CNc2ccccn2)c2ccccc2)cc1OC
inactive: ACHN > 100 µM | DU-145 > 100 µM | EKVX > 100 µM | HCT-116 > 100 µM | HL-60 > 100 µM | HOP-62 > 100 µM | HT-29 > 100 µM | Hs-578T > 100 µM | MOLT-4 > 100 µM | NCI-H226 > 100 µM | NCI-H460 > 100 µM | OVCAR-8 > 100 µM | PC-3 > 100 µM | SF-295 > 100 µM | SF-539 > 100 µM | SK-MEL-2 > 100 µM | SN12C > 100 µM | U-251 > 100 µM

O=C(CC(c1ccccc1)C(C(=O)c1ccncc1)C(CC(=O)c1ccncc1)c1ccccc1)c1ccncc1 (stereo not drawn)
inactive: ACHN 70 µM | DU-145 96.6 µM | EKVX 34.6 µM | HCT-116 > 100 µM | HL-60 > 100 µM | HOP-62 44.5 µM | HT-29 > 100 µM | Hs-578T 30 µM | MOLT-4 > 100 µM | NCI-H226 38.5 µM | NCI-H460 89.5 µM | OVCAR-8 35.6 µM | PC-3 46.2 µM | SF-295 29.8 µM | SK-MEL-2 78.7 µM | U-251 42.8 µM

O=C1C(c2c(O)[nH]c3ccc(F)cc23)=Nc2ccccc21
inactive: ACHN > 100 µM | DU-145 > 100 µM | EKVX > 100 µM | HCT-116 > 100 µM | HOP-62 46.2 µM | HT-29 > 100 µM | Hs-578T 13.6 µM | MCF7 6.56 µM | MOLT-4 21.1 µM | NCI-H226 > 100 µM | NCI-H460 > 100 µM | OVCAR-8 8.13 µM | PC-3 > 100 µM | SF-295 27.4 µM | SK-MEL-2 14.5 µM | SN12C > 100 µM | U-251 13.3 µM
